Test results as given in patent US7384935B2 (Thallion Pharmaceuticals, Inc., priority 2005, dated 2008).
Like-named read-outs stand apart in the source and are kept apart here.

What was measured:
[1] = tested on: HT-29, SF268, MDA-MB-231 and PC-3; assay: In vitro cytotoxic activity, four cell lines together (average / overall statement); conditions: for exhibited in vitro anticancer activity at 30 μM: four cell lines; for GI50: read-out: In vitro Cytotoxic Activities GI50, Average
[2] = Conversion to Compound 1 by rat liver homogenate; type: in vitro ADME, Sprague Dawley rats; conditions: 37° C.
Procedure: The aim of this test was to determine if the phosphate prodrugs were cleaved by phosphatases present in the liver.
Rat liver (3 g from Sprague Dawley rats) was weighed into a centrifuge tube and 12 mL of Buffer A was added, representing a 1:4 tissue/buffer ratio, which were homogenized for at least 30 seconds at ambient temperature.
Stock solutions of test article, control and internal standards were prepared as shown in Table 8 by diluting the compound in the appropriate solvent.
Liver homogenate (180 μL) was transferred into Eppendorf™ tubes (polypropylene, size 1.8 mL). Tubes for Blank, 0 min, 30 min, 1 h, 2 h, 3 h, 4 h and 5 h for each concentration of compound to be tested. Blank tubes were prepared by adding 200 μL of homogenate per tube.
Immediately after vortexing, the 0 min samples (for calibration) were extracted with extraction Methods A and B (see below). The remaining tubes were incubated at 37° C. for the prescribed length of time.
The mixture was allowed to stand for 10 minutes at room temperature. It was then centrifuged at 13000 RPM for 5 minutes at 4° C. The supernatant was tested by LC-MS/MS (Method B).
A volume of 800 μL of acetonitrile containing IS 200 ng/mL (Stock F) was added to the homogenate and the mixture vortexed for 30 sec. The mixture was allowed to stand at room temperature for 10 minutes, and was centrifuged at 13000 RPM for 5 minutes at 4° C. The supernatant was tested by LC-MS/MS (Method A).
Both LC methods were accomplished using the same HPLC system (Agilent Technologies 1100 with Binary pump and autosampler, and an Agilent 1100 Autosampler needle wash to avoid contamination of the needle. Both MS/MS method were done using a MDS Sciex™ MS system under positive electrospray ionization.
Multiple Reaction Monitoring (MRM) was used as scan type in Method A MS/MS.
LC Method B (long method) was done using 20 μL of test solution on a Waters Symmetry™ C-18, 3.5μ (3.0×100 mm id) and a divert pump flow rate of 1.0 ml/min using the conditions described in Table 10.
Enhanced Product Ion (EPI) was used as scan type in Method B MS/MS.

[3] = tested on: MDA-MB-231 (mammary gland adenocarcinoma); assay: In vitro cytotoxic activity (GI50), propidium iodide dye indicator; type: cell-based; conditions: MDA-MB-231, 96 hrs incubation, read-out: In vitro Cytotoxic Activities GI50, MDA-MB-231
Excerpt: (§1) Procedure used for the tests is described below.

[4] = tested on: PC-3 (prostate adenocarcinoma); assay: as above; type: cell-based; conditions: PC-3, 96 hrs incubation; read-out: In vitro Cytotoxic Activities GI50, PC-3
Excerpt: as §1

SF268 (CNS) = assay: as above; type: cell-based; conditions: SF-268, 96 hrs incubation, read-out: In vitro Cytotoxic Activities GI50, SF-268
Excerpt: as §1

[5] = tested on: HT-29 (colorectal carcinoma); assay: as above; conditions: read-out: In vitro Cytotoxic Activities GI50, HT-29
in vivo = conditions: Sprague-Dawley, rat, plasma, iv, 30 mg/kg
Procedure: Each blood sample (approximately 0.5 mL) was collected into microtainer tubes containing anticoagulant K2EDTA. The samples were centrifuged at a temperature ranging from about 2 to about 8° C. for 10 minutes at 1500 g (RCF). A volume of 25 μL of 4% w/v L-aqueous acid was added to a volume of 225 μL of rat plasma in a clean tube, and the samples were mixed by inversion.
LOQ and LOD values were determined according to the concentration range used in the experiment, using a MDS Sciex API 2000™ Q-Trap™. Mean concentration values and standard deviation (SD) were calculated at each timepoints of the pharmacokinetic study (n=3 animals/timepoint).
Blood was collected, centrifuged and analyzed as above.

[6] = average of HT-29, SF-268, PC-3, MDA-MB-231

| Structure (SMILES) | exhibited in vitro anticancer activity at 30 μM [1] | GI50 [1] [µM] | GI50 ([3]; Homo sapiens) [µM] | GI50 [4] [µM] | GI50 (SF268 (CNS); Homo sapiens) [µM] | GI50 ([5]; Homo sapiens, HT-29, 96 h) [µM] | solubility (physchem) [mg/mL] | GI50 [1, 6] [µM] | GI50 [3] [µM] | GI50 (SF268 (CNS)) [µM] | GI50 ([5]; HT-29, 96 hrs incubation) [µM] | also measured |
| --- | --- | --- | --- | --- | --- | --- | --- | --- | --- | --- | --- | --- |
| CC(C)=CCCC(C)=CCCC(C)=CCN1C(=O)c2cccc(OP(=O)(O)OCc3ccccc3)c2Nc2c(OP(=O)(O)OCc3ccccc3)cc(OP(=O)(O)OCc3ccccc3)cc21.N.N.N [Compound 9 (NH4^+)3, 10-farnesyl-4,6,8-tri(benzyloxyhydroxyphosphoryloxy)-5,10-dihydro-dibenzo[b,e][1,4]diazepin-11-one triammonium salt] | None | > 30 | > 30 | > 30 | > 30 | > 30 | > 40 |  |  |  |  | Concentration of Compound 9 (remaining prodrug) vs Time of Incubation ([2]; initial conc. 5 μg/mL in homogenate, 0 min): 1840 ng/mL; Concentration of Compound 9 (remaining prodrug) vs Time of Incubation ([2]; initial conc. 5 μg/mL in homogenate, 0.5 h): 2040 ng/mL; Concentration of Compound 9 (remaining prodrug) vs Time of Incubation ([2]; initial conc. 5 μg/mL in homogenate, 1 h): 2570 ng/mL; Concentration of Compound 9 (remaining prodrug) vs Time of Incubation ([2]; initial conc. 5 μg/mL in homogenate, 2 h): 856 ng/mL; Concentration of Compound 9 (remaining prodrug) vs Time of Incubation ([2]; initial conc. 5 μg/mL in homogenate, 3 h): 544 ng/mL; Concentration of Compound 9 (remaining prodrug) vs Time of Incubation ([2]; initial conc. 5 μg/mL in homogenate, 4 h): <LOD; Concentration of Compound 9 (remaining prodrug) vs Time of Incubation ([2]; initial conc. 5 μg/mL in homogenate, 5 h): <LOD; Concentration of Compound 9 (remaining prodrug) vs Time of Incubation ([2]; initial conc. 20 μg/mL in homogenate, 0 min): 13300 ng/mL; Concentration of Compound 9 (remaining prodrug) vs Time of Incubation ([2]; initial conc. 20 μg/mL in homogenate, 0.5 h): 14600 ng/mL; Concentration of Compound 9 (remaining prodrug) vs Time of Incubation ([2]; initial conc. 20 μg/mL in homogenate, 1 h): 9030 ng/mL; Concentration of Compound 9 (remaining prodrug) vs Time of Incubation ([2]; initial conc. 20 μg/mL in homogenate, 2 h): 2970 ng/mL; Concentration of Compound 9 (remaining prodrug) vs Time of Incubation ([2]; initial conc. 20 μg/mL in homogenate, 3 h): 1530 ng/mL; Concentration of Compound 9 (remaining prodrug) vs Time of Incubation ([2]; initial conc. 20 μg/mL in homogenate, 4 h): 1080 ng/mL; Concentration of Compound 9 (remaining prodrug) vs Time of Incubation ([2]; initial conc. 20 μg/mL in homogenate, 5 h): 948 ng/mL |
| CC(C)=CCC/C(C)=C/CC/C(C)=C/CN1C(=O)c2cccc(O)c2Nc2c(O)cc(O)cc21 [Compound 1, 10-farnesyl4,6,8-trihydroxy-5,10-dihydrodibenzo[b,e][1,4]diazepin-11-one] |  |  |  |  |  |  |  |  |  |  |  | AUC (in vivo): 70200 ng·h/mL |
| CC(=O)Oc1cc(O)c2c(c1)N(C/C=C(\C)CC/C=C(\C)CCC=C(C)C)C(=O)c1cccc(OC(C)=O)c1N2 [C, reference compound] |  |  |  | 5.35 |  |  |  | 8.72 | 7.72 | 5.79 | 16 |  |
| CC(C)=CCC/C(C)=C/CC/C(C)=C/CN1C(=O)c2cccc(O)c2Nc2c(OP(=O)(O)O)cc(O)cc21.N.N [Compound 21 (NH4^+)2, 4,8-dihydroxy-10-farnesyl-6-phosphonooxy-5,10-dihydro-dibenzo[b,e][1,4]diazepin-11-one diammonium salt] | None | > 30 | > 30 | > 30 | > 30 | > 30 | 5 |  |  |  |  |  |
| CC(=O)Oc1cc(OC(C)=O)c2c(c1)N(C/C=C(\C)CC/C=C(\C)CCC=C(C)C)C(=O)c1cccc(O)c1N2 [D, reference compound] |  |  |  | 1.35 |  |  |  | 4.48 | 1.55 | 2.02 | 13 |  |
| CC(=O)Oc1cccc2c1Nc1c(OC(C)=O)cc(O)cc1N(C/C=C(\C)CC/C=C(\C)CCC=C(C)C)C2=O [B, reference compound] |  |  |  | 1.44 |  |  |  | 4.6 | 2.48 | 1.88 | 12.6 |  |
| CC(C)=CCC/C(C)=C/CC/C(C)=C/CN1C(=O)c2cccc(OP(=O)(OCc3ccccc3)OCc3ccccc3)c2Nc2c(OP(=O)(OCc3ccccc3)OCc3ccccc3)cc(OP(=O)(OCc3ccccc3)OCc3ccccc3)cc21 [Compound 2, 10-farnesyl-4,6,8-tri(bisbenzyloxyphosphoryloxy)-5,10-dihydro-dibenzo[b,e][1,4]diazepin-11-one] | None | > 30 | > 30 | > 30 | > 30 | > 30 |  |  |  |  |  |  |
| CC(=O)Oc1cc(OC(C)=O)c2c(c1)N(C/C=C(\C)CC/C=C(\C)CCC=C(C)C)C(=O)c1cccc(OC(C)=O)c1N2 [A, reference compound] |  |  |  | 1.2 |  |  |  | 3.82 | 2.79 | 1.95 | 9.33 |  |
| CC(C)=CCC/C(C)=C/CC/C(C)=C/CN1C(=O)c2cccc(OP(=O)(O)O)c2Nc2c(OP(=O)(O)O)cc(OP(=O)(O)O)cc21 [Compound 16] | None | > 30 | > 30 | > 30 | > 30 | > 30 | > 40 |  |  |  |  |  |
